{"source": "patent US9133115B2", "about": "(ACHILLION PHARMACEUTICALS, INC., priority 2008, dated 2015)"}
{"tested_on": "HCV replicon", "test": "HCV replicon replication assay (NPT ELISA) in Huh-7 replicon-containing cells", "format": "cell-based", "settings": "Hepatitis C virus, 72 h; HCV replicon in Huh-7 cells, three days incubation; read-out: EC50", "summary_of_the_method": "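Replication was scored by capture ELISA of neomycin phosphotransferase, whose level tracks replicon replication, after graded compound treatment. The cells were Huh-7 harbouring an HCV-IRES/neo/EMCV-IRES/NS3–NS5B/3′-NTR replicon, plated at 6000-7500 cells/well and dosed 24 h later at 60-70% confluence; interferon alpha was the positive control.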", "units": {"EC50": "nM"}}
{"smiles": "C=C[C@@H]1C[C@]1(NC(=O)[C@@H]1C[C@@H](Oc2cc(-c3ccccc3)nc3cc(OC)ccc23)CN1C(=O)[C@@H](CC(=O)N1CCN(S(=O)(=O)CC)CC1)C(C)(C)C)C(=O)NS(=O)(=O)C1CC1", "note": "[Compound 195, (2S,4R)-1-((S)-2-tert-butyl-4-(4-(ethylsulfonyl)piper-azin-1-yl)-4-oxobutanoyl)-N-((1R)-1-(cyclopropylsulfonyl-carbamoyl)-2-vinylcyclopropyl)-4-(7-methoxy-2-phenylquinolin-4-yloxy)pyrrolidine-2-carboxamide]", "EC50": "< 1000"}
{"smiles": "C=C[C@@H]1C[C@]1(NC(=O)[C@@H]1C[C@@H](Oc2cc(-c3ccccc3)nc3cc(OC)ccc23)CN1C(=O)[C@@H](CC(=O)N1CC[C@@H](NC(=O)OC(C)(C)C)C1)C(C)(C)C)C(=O)NS(=O)(=O)C1CC1", "note": "[Compound 184, tert-butyl (R)-1-((S)-3-((2S,4R)-2-((1R,2S)-1-(cyclo-propylsulfonyl-carbamoyl)-2-vinyl-cyclopropyl-carbamoyl)-4-(7-methoxy-2-phenylquinolin-4-yloxy)pyrrolidine-1-carbonyl)-4,4-dime-thylpentanoyl)pyr-rolidin-3-ylcarbamate]", "EC50": "< 1000"}
{"smiles": "C=C[C@@H]1C[C@]1(NC(=O)[C@@H]1C[C@@H](N(Cc2ccccn2)C(=O)n2c3ccccc3c3ccccc32)CN1C(=O)[C@@H](CC(=O)N1CCCCC1)C(C)(C)C)C(=O)NS(=O)(=O)C1CC1", "note": "[Compound 191, N-((3R,5S)-1-((S)-2-tert-butyl-4-oxo-4-(piperidin-1-yl)butanoyl)-5-((1R)-1-(cyclopropylsulfonyl-carbamoyl)-2-vinyl-cyclopropyl-carbamoyl)pyrrolidin-3-yl)-N-(pyridin-2-ylmethyl)-9H-carbazole-9-carboxamide]", "EC50": "< 1000"}
{"smiles": "C=C[C@H]1C[C@]1(NC(=O)[C@@H]1C[C@@H](Oc2cc(-c3ccccc3)nc3cc(OC)ccc23)CN1C(=O)[C@@H](CC(=O)N1CCCCC1)C1CCCC1)C(=O)NS(=O)(=O)C1CC1", "note": "[Compound 86, (2S,4R)-1-((S)-2-cyclopentyl-4-oxo-4-(piperidin-1-yl)butanoyl)-N-((1R,2R)-1-(cyclo-propylsulfonyl-carbamoyl)-2-vinylcyclopropyl)-4-(7-methoxy-2-phenylquinolin-4-yloxy)pyrrolidine-2-carboxamide]", "EC50": "< 1000"}
{"smiles": "C=C[C@@H]1C[C@]1(NC(=O)[C@@H]1C[C@@H](OC(=O)n2c3ccc(Cl)cc3c3cc(Cl)ccc32)CN1C(=O)[C@@H](CC(=O)N1CCCCC1)C(C)(C)C)C(=O)NS(=O)(=O)C1CC1", "note": "[Compound 155, (3R,5S)-1-((S)-2-tert-butyl-4-oxo-4-(piperidin-1-yl)butanoyl)-5-((1R,2S)-1-(cyclo-propylsulfonyl-carbamoyl)-2-vinyl-cyclopropyl-carbamoyl)pyrrolidin-3-yl 3,6-dichloro-9H-carbazole-9-carboxylate]", "EC50": "< 1000"}
{"smiles": "C=C[C@@H]1C[C@]1(NC(=O)[C@@H]1C[C@@H](NC(=O)c2cc(-c3ccccc3)nc3ccccc23)CN1C(=O)[C@@H](CC(=O)N1CCC(F)(F)CC1)C(C)(C)C)C(=O)NS(=O)(=O)C1CC1", "note": "[Compound 200, N-((3R,5S)-1-((S)-2-tert-butyl-4-(4,4-difluoropiperidin-1-yl)-4-oxobutanoyl)-5-((1R,2S)-1-(cyclopropylsulfonyl-carbamoyl)-2-vinylcyclopropyl-carbamoyl)pyrrolidin-3-yl)-2-phenylquinoline-4-carboxamide]", "EC50": "< 1000"}
{"smiles": "C=C[C@@H]1C[C@]1(NC(=O)[C@@H]1C[C@@H](Oc2cc(-c3ccccc3)nc3cc(OC)ccc23)CN1C(=O)[C@@H](CC(=O)N1CCC(C(=O)NC)CC1)C(C)(C)C)C(=O)NS(=O)(=O)C1CC1", "note": "[Compound 78]", "EC50": "< 1000"}
{"smiles": "COc1ccc2c(O[C@@H]3C[C@@H](C(=O)NC4(C(=O)NS(=O)(=O)C5CC5)CCCC4)N(C(=O)[C@@H](CC(=O)N4CCCCC4)C(C)(C)C)C3)cc(-c3ccccc3)nc2c1", "note": "[Compound 98, (2S,4R)-1-((S)-2-tert-butyl-4-oxo-4-(piperidin-1-yl)butanoyl)-N-(1-(cyclopropylsulfonyl-carbamoyl)cyclo-pentyl)-4-(7-methoxy-2-phenylquinolin-4-yloxy)pyrrolidine-2-carboxamide]", "EC50": "1000 to 10000"}
{"smiles": "C=C[C@@H]1C[C@]1(NC(=O)[C@@H]1C[C@@H](OC(=O)Nc2ccccc2C(=O)OC)CN1C(=O)[C@@H](CC(=O)N1CCCCC1)C(C)(C)C)C(=O)NS(=O)(=O)C1CC1", "note": "[Compound 93, methyl 2-(((3R,5S)-1-((S)-2-tert-butyl-4-oxo-4-(piperidin-1-yl)butanoyl)-5-((1R,2S)-1-(cyclo-propylsulfonyl-carbamoyl)-2-vinylcyclopropyl-carbamoyl)pyrrolidin-3-yloxy)carbonyl-amino)benzoate]", "EC50": "< 1000"}
{"smiles": "C=CC1CC1(NC(=O)[C@@H]1C[C@@H](Oc2cc(-c3ccccc3)nc3cc(OC)ccc23)CN1C(=O)C[C@H](C(=O)NC1CCCC1)C(C)(C)C)C(=O)NS(=O)(=O)C1CC1", "note": "(stereo partly shown) [Compound 46]", "EC50": "< 1000"}
{"smiles": "C=C[C@@H]1C[C@]1(NC(=O)[C@@H]1C[C@@H](Oc2cc(-c3ccccn3)nc3cc(OC)ccc23)CN1C(=O)[C@@H](CC(=O)N1CCCC(F)(F)C1)C(C)(C)C)C(=O)NS(=O)(=O)C1CC1", "note": "[Compound 217, (2S,4R)-1-((S)-2-tert-butyl-4-(3,3-difluoropiperidin-1-yl)-4-oxobutanoyl)-N-((1R)-1-(cyclopropyl-sulfonylcarbamoyl)-2-vinylcyclopropyl)-4-(7-methoxy-2-(pyridin-2-yl)quinolin-4-yloxy)pyrrolidine-2-carboxamide]", "EC50": "< 1000"}
{"smiles": "C=C[C@@H]1C[C@]1(NC(=O)[C@@H]1C[C@@H](Oc2cc(-c3ccccn3)nc3c(Cl)c(OC)ccc23)CN1C(=O)[C@@H](CC(=O)N1CCCC(F)C1)C(C)(C)C)C(=O)NS(=O)(=O)C1CC1", "note": "(stereo partly shown) [Compound 209]", "EC50": "< 1000"}
{"smiles": "C=CC1CC1(NC(=O)[C@@H]1C[C@@H](Oc2cc(-c3ccccc3)nc3cc(OC)ccc23)CN1C(=O)[C@@H](CC(=O)N1CCCCC1C(N)=O)C(C)(C)C)C(=O)NS(=O)(=O)C1CC1", "note": "(stereo partly drawn) [Compound 42, 1-((3S)-3-((2S,4R)-2-(1-(cyclopropyl-sulfonyl-carbamoyl)-2-vinylcyclopropyl-carbamoyl)-4-(7-methoxy-2-phenylquinolin-4-yloxy)pyrrolidine-1-carbonyl)-4,4-dimethylpentano-yl)piperidine-2-carboxamide]", "EC50": "< 1000"}
{"smiles": "C=CC1C[C@]1(NC(=O)[C@@H]1C[C@@H](Oc2cc(-c3ccccc3)nc3cc(OC)ccc23)CN1C(=O)[C@@H](CC(=O)N1C(C)CCCC1C)C(C)(C)C)C(=O)NS(=O)(=O)C1CC1", "note": "(stereo partly shown) [Compound 163]", "EC50": "< 1000"}
{"smiles": "C=C[C@@H]1C[C@]1(NC(=O)[C@@H]1C[C@@H](Oc2cc(-c3ccccc3)nc3cc(OC)ccc23)CN1C(=O)[C@@H](CC(=O)N1CC2CC1CO2)C(C)(C)C)C(=O)NS(=O)(=O)C1CC1", "note": "(stereo partly drawn) [Compound 174, (2S,4R)-1-((2S)-2-(2-(2-oxa-5-aza-bicyclo[2.2.1]heptan-5-yl)-2-oxoethyl)-3,3-dimethylbutanoyl)-N-((1R,2S)-1-(cyclopropyl-sulfonylcarbamoyl)-2-vinylcyclopropyl)-4-(7-methoxy-2-phenylquinolin-4-yloxy)pyrrolidine-2-carboxamide]", "EC50": "< 1000"}
{"smiles": "C=CCC1(S(=O)(=O)NC(=O)[C@@]2(NC(=O)[C@@H]3C[C@@H](Oc4cc(-c5ccccc5)nc5cc(OC)ccc45)CN3C(=O)[C@@H](CC(=O)N3CCCCC3)C(C)(C)C)C[C@H]2C=C)CC1", "note": "[Compound 151]", "EC50": "< 1000"}
